{"source": "patent US20030186891A1", "about": "“Compositions and methods for treatment of vitamin D deficiency” (priority 2002, published 2003)", "molecules": {"B1": {"name": "parathyroid hormone (peptide, UniProt P01270 32-115, looked up)", "Parathyroid hormone": "SVSEIQLMHNLGKHLNSMERVEWLRKKLQDVHNFVALGAPLAPRDAGSQRPRKKEDNVLVESHEKSLGEADKADVNVLTKAKSQ", "modifications": "Parathyroid hormone", "notes": "parathyroid hormone, comparator inducer of 1α-hydroxylase mRNA acting via a PKA-dependent pathway"}}, "key": {"24-hydroxylase mRNA": {"test_system": "24-hydroxylase mRNA", "assay": "24-hydroxylase mRNA expression in CL-8 cells", "assay_type": "cell-based", "conditions": "1α,25-dihydroxyvitamin D3 10^−9 M, 5 hours (FIG. 4)", "description": "CL-8 cells were grown as above and the peptide of SEQ ID NO.1 was either not added to the cells, or added to the cells at a concentration of either 100 or 500 ng/ml. Cells were grown for a further 5 hours, and RNA was harvested using methods described above and expression levels of 24-hydroxylase were determined in each sample using methods described above. […]"}, "1α-hydroxylase mRNA": {"test_system": "1α-hydroxylase mRNA", "assay": "1α-hydroxylase mRNA expression in CL-8 cells (real-time quantitative PCR)", "assay_type": "cell-based, human", "experimental": "Cell culture, RNA preparation and cDNA synthesis: CL-8 cells (1.6×10^6 cells) were placed in 60 mm culture dish, and cultured for 48 hours in 5% FCS D-MEM/HamF-12(1:1) medium. This medium was exchanged to FCS free, 0.5 mM Ca defined medium [D-MEM/HamF-12 (13:87), Insulin 5 μg/ml, Transferrin 5 μg/ml, Na2SeO3 5 ng/ml, T3 0.37 nM, EGF 2.5 ng/ml, Hydrocortisone 1 nM]. After 24 hours, the peptide of SEQ ID NO.1 (100 ng/ml or 500 ng/ml) or PTH 100 nM were added and cultured for 5 hours. After treatment, the total cellular contents of each well were used for RNA extraction and reverse transcription (RT). RNA was isolated using ISOGEN (Nippon Gene, Japan) according to the manufacturer's protocol. The purified RNA was redissolved in 10 μl RNase-free water and used for cDNA synthesis by RT. The RT was performed in a 20 μl reaction mixture containing 10 mM Tris buffer, pH8.3, 50 mM KCl, 5 mM MgCl2, 1 mM each of dATP, dGTP, dCTP and dTTP, 20 U of RNase inhibitor, 1 μM Reverse primer and 5 U of AMV reverse transcriptase. The reaction mixture was incubated at 30° C. for 10 min, 55° C. for 15 min, 95° C. for 5 min followed by 5° C. for 5 min.\nReal-time quantitative PCR: mRNA was quantitated for human 1α-OHase gene and β-actin. Theses gene were amplified using primers of oligo synthesis DNA (Takara, Japan). […] Quantitation of mRNA was performed using Applied Biosystems GeneAmp 5700 sequence detection system with SYBR Green methods.\nIn order to study the effect of the peptide of SEQ ID No. 1 on the regulation of 1α-hydoxylase mRNA expression, CL-8 cells were grown with and without the peptide of SEQ ID No. 1 and the effects of the peptide on 1α-hydroxylase were quantified. […]\nPTH and the peptide of SEQ ID NO.1 induce the expression of 1α-hydroxylase mRNA. […] Cells were grown for a further 5 hours, and RNA was harvested and expression levels of 1α-hydroxylase were determined in each sample using standard Northern blotting or RT-PCR procedures."}}, "data": [{"molecule": "C=C1/C(=C\\C=C2/CCC[C@]3(C)[C@@H]([C@H](C)CCCC(C)(C)O)CC[C@@H]23)C[C@@H](O)C[C@@H]1O", "note": "[1α,25-dihydroxyvitamin D3]", "values": [{"measurement": "levels of 24-hydroxylase mRNA", "setting": "24-hydroxylase mRNA", "result": "significant increase"}]}, {"molecule": "O=S(=O)(NCCNC/C=C/c1ccc(Br)cc1)c1cccc2cnccc12", "note": "[H-89]", "values": [{"measurement": "effect of H-89 on the inducing effects of PTH on 1α-hydroxylase mRNA expression", "setting": "1α-hydroxylase mRNA; H-89 10 uM with PTH 100 nmol, 5 hours (FIG. 2)", "result": "inhibited"}, {"measurement": "effect of H-89 on the stimulatory effects of the peptide of SEQ ID NO.1 on 1α-hydroxylase mRNA expression", "setting": "1α-hydroxylase mRNA; H-89 10 uM with peptide 100 or 500 ng/ml, 5 hours", "result": "did not inhibit"}]}, {"molecule": "B1", "values": [{"measurement": "induction of the expression of 1α-hydroxylase mRNA", "setting": "1α-hydroxylase mRNA", "result": "induce"}]}]}
